Reference: US12459918B2, “Isoquinolinone derivatives serving as rock protein kinase inhibitors and use thereof” (GUANGZHOU OCUSUN OPHTHALMIC BIOTECHNOLOGY CO., LTD., priority 2019, dated 2025)

Experiments:
Type in all cases: in vivo
[1] = system: New Zealand rabbits with acute ocular hypertension; experiment: Intraocular pressure reduction experiment in New Zealand rabbits with acute ocular hypertension, experiment operation 2; conditions: for Intraocular pressure in the left eye: left eye (solvent, not modeled)
Description: Experimental Example 3. Intraocular Pressure Reduction Experiment in New Zealand Rabbits with Acute Ocular Hypertension
Acute ocular hypertension of rabbits were induced by anterior chamber injection of a viscoelastic agent and the intraocular pressure reduction action of compound 60 and compound 63 at different concentrations were explored by eye-drop administration.
Male New Zealand rabbits, aged 97-127 days, weighted 2.5-3.4 kg, purchased from PizhouDongfang Breeding Co. Ltd.
50 male New Zealand rabbits were randomly divided into 5 groups according to body weight, with 10 rabbits/per group Animals in 1-5 groups were injected with medical sodium hyaluronate gel in the anterior chamber of right eye in a single dose, 100 μL/eye, to induce ocular hypertension. In 5-15 minutes after modeling, the right eye was respectively dropped with a solvent, K-115 and test samples (compound 63 at different concentrations), the left eye was dropped with a solvent, the volume of the administration was all 50 μL/eye, and intraocular pressure in both eyes of the animals was measured before administration and in 2, 4, 6, 8 and 10 hours after administration, respectively.

[2] = system: New Zealand rabbits with normal intraocular pressure; experiment: Ocular stimulation response examination by hand-held slit lamp, 14 days eye-drop administration; conditions: 14 consecutive days, 50 μL/eye/day
Experimental: 42 male New Zealand rabbits were randomly divided into 7 groups, with 6 rabbits per group. Animals were randomly divided according to body weight Animals in 1-7 groups were eye-dropped with normal saline in the left eye and with solvent/control sample/test sample in the right eye respectively by a volume of 50 μL/eye, once per day for 14 consecutive days, and the day of administration was recorded as Day 1. The intraocular pressure of the animals was measured before Day 1 administration and in 1, 2, 4, 6, 8 and 10 hours after Day 1 administration, respectively (Table 8).
Before the experiment (Day 2/Day 1), before daily administration during the administration (Days 1-14), and in 1, 2, 4, 24, 48 and 72 hours after the last administration (Day 14), the eyes of animals were examined for ocular stimulation response and fluorescein sodium by a hand-held slit lamp (scoring by referring to the scoring criteria).
Before the experiment (Day 2/Day 1), before the first daily administration (Days 1-14) during the administration, and in 1, 2, 4, 24, 48 and 72 hours after the last administration, the eyes of animals were examined for ocular stimulation response by a hand-held slit lamp. The scoring criteria were as follows. […]

[3] = system: New Zealand rabbits with normal intraocular pressure; experiment: Intraocular pressure reduction experiment in New Zealand rabbits with normal intraocular pressure; conditions: for Intraocular pressure in the left eye: 20 mg/mL group, left eye (saline or solvent); for Intraocular pressure in the right eye: 20 mg/mL in right eye; for Reduction magnitude of intraocular pressure: 20 mg/mL, left minus right eye
Description: Experimental Example 2. Intraocular Pressure Reduction Experiment in New Zealand Rabbits with Normal Intraocular Pressure
Rabbits with normal intraocular pressure were adopted to screen intraocular pressure reduction actions of the potential compounds by eye-drop administration.
Male New Zealand rabbits, aged 97-127 days, weighted 2.65-3.5 kg, purchased from PizhouDongfang Breeding Co. Ltd.
The male New Zealand rabbits were randomly divided into 8 rabbits/per group using a computer-generated randomization method Animals in each group were eye-dropped with different test samples in the right eye, and normal saline or solvent in the left eye, and the volume of the administration was both 50 μL/eye. The intraocular pressure of the animals was measured before administration and in 1, 2, 4, 6, 8 and 10 hours after the administration, respectively.

## Cc1ccc(C(=O)OCn2cc(C)c3c(S(=O)(=O)N4CC[C@H](N)C4)cccc3c2=O)c(C)c1 [Compound 63]
[1]; 0.25 mg/mL group, 2 hours after administration
  Intraocular pressure in the left eye: 6.07 mmHg
[1]; 0.25 mg/mL group, 4 hours after administration
  Intraocular pressure in the left eye: 6.60 mmHg
[1]; 0.25 mg/mL group, 6 hours after administration
  Intraocular pressure in the left eye: 9.10 mmHg
[1]; 0.25 mg/mL group, 8 hours after administration
  Intraocular pressure in the left eye: 11.50 mmHg
[1]; 0.25 mg/mL group, 10 hours after administration
  Intraocular pressure in the left eye: 12.43 mmHg
[1]; 0.25 mg/mL group, before administration
  Intraocular pressure in the left eye: 10.53 mmHg
[1]; 0.25 mg/mL in right eye (induced ocular hypertension), 2 hours after administration
  Intraocular pressure in the right eye: 8.47 mmHg
[1]; 0.25 mg/mL in right eye (induced ocular hypertension), 4 hours after administration
  Intraocular pressure in the right eye: 8.60 mmHg
[1]; 0.25 mg/mL in right eye (induced ocular hypertension), 6 hours after administration
  Intraocular pressure in the right eye: 11.20 mmHg
[1]; 0.25 mg/mL in right eye (induced ocular hypertension), 8 hours after administration
  Intraocular pressure in the right eye: 13.37 mmHg
[1]; 0.25 mg/mL in right eye (induced ocular hypertension), 10 hours after administration
  Intraocular pressure in the right eye: 13.10 mmHg
[1]; 0.25 mg/mL in right eye (induced ocular hypertension), before administration
  Intraocular pressure in the right eye: 11.43 mmHg
[1]; 2.0 mg/mL group, 2 hours after administration
  Intraocular pressure in the left eye: 6.60 mmHg
[1]; 2.0 mg/mL group, 4 hours after administration
  Intraocular pressure in the left eye: 7.04 mmHg
[1]; 2.0 mg/mL group, 6 hours after administration
  Intraocular pressure in the left eye: 11.23 mmHg
[1]; 2.0 mg/mL group, 8 hours after administration
  Intraocular pressure in the left eye: 12.84 mmHg
[1]; 2.0 mg/mL group, 10 hours after administration
  Intraocular pressure in the left eye: 13.10 mmHg
[1]; 2.0 mg/mL group, before administration
  Intraocular pressure in the left eye: 11.27 mmHg
[1]; 2.0 mg/mL in right eye (induced ocular hypertension), 2 hours after administration
  Intraocular pressure in the right eye: 8.52 mmHg
[1]; 2.0 mg/mL in right eye (induced ocular hypertension), 4 hours after administration
  Intraocular pressure in the right eye: 11.56 mmHg
[1]; 2.0 mg/mL in right eye (induced ocular hypertension), 6 hours after administration
  Intraocular pressure in the right eye: 13.81 mmHg
[1]; 2.0 mg/mL in right eye (induced ocular hypertension), 8 hours after administration
  Intraocular pressure in the right eye: 12.96 mmHg
[1]; 2.0 mg/mL in right eye (induced ocular hypertension), 10 hours after administration
  Intraocular pressure in the right eye: 11.96 mmHg
[1]; 2.0 mg/mL in right eye (induced ocular hypertension), before administration
  Intraocular pressure in the right eye: 11.23 mmHg
[1]; 8.0 mg/mL group, 2 hours after administration
  Intraocular pressure in the left eye: 5.93 mmHg
[1]; 8.0 mg/mL group, 4 hours after administration
  Intraocular pressure in the left eye: 6.43 mmHg
[1]; 8.0 mg/mL group, 6 hours after administration
  Intraocular pressure in the left eye: 10.10 mmHg
[1]; 8.0 mg/mL group, 8 hours after administration
  Intraocular pressure in the left eye: 11.87 mmHg
[1]; 8.0 mg/mL group, 10 hours after administration
  Intraocular pressure in the left eye: 13.19 mmHg
[1]; 8.0 mg/mL group, before administration
  Intraocular pressure in the left eye: 11.20 mmHg
[1]; 8.0 mg/mL in right eye (induced ocular hypertension), 2 hours after administration
  Intraocular pressure in the right eye: 7.40 mmHg
[1]; 8.0 mg/mL in right eye (induced ocular hypertension), 4 hours after administration
  Intraocular pressure in the right eye: 7.97 mmHg
[1]; 8.0 mg/mL in right eye (induced ocular hypertension), 6 hours after administration
  Intraocular pressure in the right eye: 8.84 mmHg
[1]; 8.0 mg/mL in right eye (induced ocular hypertension), 8 hours after administration
  Intraocular pressure in the right eye: 8.60 mmHg
[1]; 8.0 mg/mL in right eye (induced ocular hypertension), 10 hours after administration
  Intraocular pressure in the right eye: 8.78 mmHg
[1]; 8.0 mg/mL in right eye (induced ocular hypertension), before administration
  Intraocular pressure in the right eye: 11.53 mmHg
[2]; concentration range of 0.25-4 mg/mL
  Evaluation of ocular stimulation: no stimulation

## C[C@H]1CNCCCN1S(=O)(=O)c1cccc2cncc(F)c12 [Compound K-115, reference compound]
[3]; 1 hour after administration
  Intraocular pressure in the left eye: 11.42 mmHg
  Intraocular pressure in the right eye: 7.54 mmHg
  Reduction magnitude of intraocular pressure: 3.88 mmHg
[3]; 2 hours after administration
  Intraocular pressure in the left eye: 11.67 mmHg
  Intraocular pressure in the right eye: 8.63 mmHg
  Reduction magnitude of intraocular pressure: 3.04 mmHg
[3]; 4 hours after administration
  Intraocular pressure in the left eye: 12.08 mmHg
  Intraocular pressure in the right eye: 10.83 mmHg
  Reduction magnitude of intraocular pressure: 1.25 mmHg
[3]; 6 hours after administration
  Intraocular pressure in the left eye: 12.38 mmHg
  Intraocular pressure in the right eye: 11.83 mmHg
  Reduction magnitude of intraocular pressure: 0.55 mmHg
[3]; 8 hours after administration
  Intraocular pressure in the left eye: 12.83 mmHg
  Intraocular pressure in the right eye: 12.63 mmHg
  Reduction magnitude of intraocular pressure: 0.2 mmHg
[3]; 10 hours after administration
  Intraocular pressure in the left eye: 15.25 mmHg
  Intraocular pressure in the right eye: 14.92 mmHg
  Reduction magnitude of intraocular pressure: 0.33 mmHg
[3]; before administration
  Intraocular pressure in the left eye: 12.29 mmHg
  Intraocular pressure in the right eye: 12.92 mmHg
  Reduction magnitude of intraocular pressure: −0.63 mmHg
[1]; 4 mg/mL group, 2 hours after administration
  Intraocular pressure in the left eye: 6.50 mmHg
[1]; 4 mg/mL group, 4 hours after administration
  Intraocular pressure in the left eye: 8.54 mmHg
[1]; 4 mg/mL group, 6 hours after administration
  Intraocular pressure in the left eye: 11.40 mmHg
[1]; 4 mg/mL group, 8 hours after administration
  Intraocular pressure in the left eye: 13.20 mmHg
[1]; 4 mg/mL group, 10 hours after administration
  Intraocular pressure in the left eye: 13.37 mmHg
[1]; 4 mg/mL group, before administration
  Intraocular pressure in the left eye: 11.80 mmHg
[1]; 4 mg/mL in right eye (induced ocular hypertension), 2 hours after administration
  Intraocular pressure in the right eye: 8.20 mmHg
[1]; 4 mg/mL in right eye (induced ocular hypertension), 4 hours after administration
  Intraocular pressure in the right eye: 11.27 mmHg
[1]; 4 mg/mL in right eye (induced ocular hypertension), 6 hours after administration
  Intraocular pressure in the right eye: 15.07 mmHg
[1]; 4 mg/mL in right eye (induced ocular hypertension), 8 hours after administration
  Intraocular pressure in the right eye: 15.57 mmHg
[1]; 4 mg/mL in right eye (induced ocular hypertension), 10 hours after administration
  Intraocular pressure in the right eye: 16.47 mmHg
[1]; 4 mg/mL in right eye (induced ocular hypertension), before administration
  Intraocular pressure in the right eye: 11.77 mmHg
[2]; 4 mg/mL
  Evaluation of ocular stimulation: no stimulation
